Here are results for two compounds from US8778897B2, “Method of treatment using α-1-adrenergic agonist compounds” (The Regents of the University of California, priority 2008, dated 2014).

SMILES strings stand for the structures.

Series [1] has as its system alpha-1A adrenergic receptor. The series can be described thus: Doxorubicin-induced cardiomyopathy in alpha-1A-subtype knock-out mice. The format is in vivo.
The test system of series [2] is wild type male C57BI6J mice. The series is described as follows: Doxorubicin-induced cardiomyopathy in wild type mice. The format is in vivo. The following applies: single doxorubicin 25 mg/kg i.p., A61603 10 ng/kg/day or vehicle infused over 7 days; for Fibrosis area (%): Sirius red; for Fibrosis area (%) / TUNEL-positive / ECHO FS (%) / Serum CK (U/L): mean ± SE; for TUNEL-positive: apoptosis; for Survival 7 days (%): untreated 100. On the procedure:
(§1) The alpha-1-adrenergic receptor agonist, A61603, was administered to 11 week-old wild type male C57BI6J mice using an osmotic minipump. Cardiomyopathy was induced with a single dose of doxorubicin (25 mg/kg) administered intraperitoneally. Blood pressure was measured by tail cuff, activated (phosphorylated) P-ERK by immunoblot, heart mRNA by RT-qPCR, fractional shortening (FS) by echocardiography (ECHO), myocyte necrosis by serum creatine kinase (CK), apoptosis by TUNEL stain, and fibrosis by Sirius red stain.
A61603 at the non-hypertensive dose of 10 ng/kg/day or vehicle was infused over 7 days after a single injection of doxorubicin.

A short description of series [3]: Dose finding study, daily tail cuff blood pressure in mice. Format: in vivo. On the procedure: as §1
In a dose finding study, (0.01-100 μg/kg/day),
A61603 at 10 ng/kg/day over 7 days had no effect on daily tail cuff blood pressure, as evidenced by the average blood pressure of the control, vehicle treated mice of 115±4 mmHg and the average blood pressure of the mice treated with A61603 of 119±4 mmHg.

The target of series [4] is T1, α1A receptor (Mus musculus, UniProt P97718).
T1 construct: host or cells: wild-type mice (whole animal, endogenous receptor)
T1 sequence (P97718 1-466): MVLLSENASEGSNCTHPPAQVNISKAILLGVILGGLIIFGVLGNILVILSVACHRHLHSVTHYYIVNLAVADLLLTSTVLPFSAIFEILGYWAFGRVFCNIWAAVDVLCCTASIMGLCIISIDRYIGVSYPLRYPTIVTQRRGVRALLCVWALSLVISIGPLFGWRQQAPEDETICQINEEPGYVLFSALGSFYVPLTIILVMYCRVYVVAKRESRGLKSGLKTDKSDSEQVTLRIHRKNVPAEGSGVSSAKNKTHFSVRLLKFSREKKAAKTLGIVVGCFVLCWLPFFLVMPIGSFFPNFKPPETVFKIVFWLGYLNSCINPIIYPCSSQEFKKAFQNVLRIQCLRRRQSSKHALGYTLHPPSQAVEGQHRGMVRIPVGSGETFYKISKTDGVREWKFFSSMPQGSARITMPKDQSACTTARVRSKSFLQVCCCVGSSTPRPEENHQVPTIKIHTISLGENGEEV
The following applies: wild-type mice, infusion; cited from earlier work.

For series [5], the system named is α1A-AR. The note with it: α1A-AR knock-out mice, infusion; cited from earlier work.
Series [6] relates to α1A receptors. The following applies: cited from earlier work.

`Br.CS(=O)(=O)Nc1c(O)ccc2c1CCCC2C1=NCCN1` (stereo not drawn) [A61603, N-[5-(4,5-Dihydro-1H-imidazol-2-yl)-2-hydroxy-5,6,7,8-tetrahydronaphthalen-1-yl]methanesulfonamide hydrobromide]: the “benefit of A61603 against doxorubicin cardiomyopathy” value in series [1] (data not shown) was “no beneficial result”. Besides, in series [2], the “Fibrosis area (%)” value came to 25 ± 1%, the TUNEL-positive is given as 0.5 ± 0.1, the “ECHO FS (%)” value is 67 ± 1% and the “Serum CK (U/L)” value stood at 571 ± 67 U/L. Also, the “Survival 7 days (%)” value in series [2] is 100%. Further, the “effect on daily tail cuff blood pressure” value in series [3] (10 ng/kg/day over 7 days) is on record as “no effect”. The average blood pressure in series [3] (10 ng/kg/day over 7 days, osmotic minipump, tail cuff, vehicle control 115±4 mmHg) came to 119±4 mmHg. The “effect on blood pressure at higher doses” value in series [3] (doses higher than 10 ng/kg/day (range 0.01-100 μg/kg/day)) is listed as “increased blood pressure”. Also, in series [4], the “EC50 for increase of mean arterial pressure” value was 0.3 µg/kg, the “increased mean arterial pressure (MAP)” value is 35 mm Hg and the “increased mean arterial pressure (MAP) over basal” value is given as 25%. In addition, the “effect on mean arterial pressure” value in series [5] is “no effect”. Besides, the “potency at α1A receptors relative to α1B or α1D sites” value in series [6] is given as “at least 35 fold”. In addition, the “potency as α1A AR agonist compared with phenylephrine” value in series [6] (versus non-selective α1 AR agonist phenylephrine) is recorded as “more potent”.
Consider `COc1cccc2c1C(=O)c1c(O)c3c(c(O)c1C2=O)C[C@@](O)(C(=O)CO)C[C@@H]3O[C@H]1C[C@H](N)[C@H](O)[C@H](C)O1` [Doxorubicin, doxorubicin, reference compound], for which the “apoptosis and mortality compared with wild-type mice” value in series [1] (doxorubicin) was “increased apoptosis and mortality”. For the same compound, in series [2], the “Fibrosis area (%)” value stood at 32 ± 1%, the TUNEL-positive was found to be 1.3 ± 0.2, the “ECHO FS (%)” value was found to be 55 ± 3% and the “Serum CK (U/L)” value was 1204 ± 98 U/L. Moreover, the “Survival 7 days (%)” value in series [2] is listed as 60%.
